Series [1] in a line: Toxicity of proteasome inhibitors in mice. The settings on record: 10, 100, and 1000 fold higher effective doses; intra-tracheal and systemic (IV) delivery. The class given is in vivo, mouse. The protocol: Long-term enhancement of rAAV transduction by proteasome inhibitor in vivo. To evaluate the potential utility of proteasome inhibitors for in vivo gene therapy, both the toxicity and efficacy of these agents for in vivo rAAV mediated gene transfer in the mouse lung was tested. To assess the toxicity of these proteasome inhibitors in mice, 10, 100, and 1000 fold higher effective doses of LLnL or Z-LLL were administered than used to induce gene transfer in polarized airway cells, using both intra-tracheal and systemic (IV) delivery. No toxicity was indicated by histologic evaluation of the lung and liver or was evidenced by the death of animals. To investigate whether these proteasome inhibitors could improve rAAV transduction in vivo, AV.LacZ (5×10^10 particles) was delivered either alone or in the presence of 400 μM Z-LLL by intranasal administration. Mouse lungs were harvested at 3, 10 and 150 days post-infection to evaluate short and long term effects. […] Targeted transgene expression was predominantly confined to the conducting airways, rather than in the parenchyma. Alveolar cells were rarely transduced. […] The range of transgene expression in distal and proximal airways was 0 to 4% and 5 to 18%, respectively.

The next series deals with mouse lung. In words: AV2Luc / AV2/5Luc gene transfer to BL6 mouse lung with Z-LLL and/or Dox. It counts as in vivo. The settings on record: 200 μM.
In series [2] the test system is mouse lung airway epithelium. In words: AV.LacZ gene transfer to mouse lung with Z-LLL (nasal aspiration, X-gal morphometry). It counts as in vivo. The settings on record: 400 μM Z-LLL; 3 and 10 days post infection. The procedure:
In vivo studies in mice. Animal studies were performed in accordance with the institutional guidelines of the University of Iowa. To determine the effect of the proteasome inhibitor on AAV mediated gene transfer in mouse lung, 6 week-old BALB/c mice were lightly anesthetized using a methoxyflurane chamber. AV.LacZ (5×10^10 particles) was administered alone or with 400 μM Z-LLL in a 10 μl instillation by nasal aspiration as described by Walters et al. (2000). To prevent unforeseen toxicity of DMSO solvent, the proteasome inhibitor Z-LLL was dissolved in ethanol as a 40 mM stock solution and was included in the viral inoculum at 1% final concentration. Viral infection controls in the absence of Z-LLL also contained a 1% final concentration of ethanol. […] Lungs (N=3 for each condition) were embedded in OCT (optimal cutting temperature; Baxter, Warrendale, Pa.) and 15 μm serially sections were analyzed for gene transfer by calculating the percentage of positive cells in the airway epithelium. The diameter of the airway was recorded for classification (>360 μm, 260-350 μm, 160-250 μm, <150 μm) of results following morphometric analysis. Greater than 150 airway cross-sections were quantified for each experimental condition.

In series [3] the test system is polarized human bronchial epithelial cells. The class given is cell-based. Conditions: for augmentation in transgene expression: applied to the serosal surface along with rAAV, 2 days post infection, LLnL 40 μM. The procedure: Primary culture of human bronchial epithelia and reagents utilized. Primary human airway epithelial cells were collected by enzymatic digestion of bronchial samples from lung transplants, as previously described (Kondo et al., 1991; Zabner et al., 1996). Isolated primary airway cells were seeded at a density of 5×10^5 cells/cm^2 onto collagen-coated Millicell-HA culture inserts (Millipore Corp., Bedford, Mass.). Primary cultures were grown at the air-liquid interface for more than 2 weeks, by which time differentiation into a mucociliary epithelium occurs. The culture medium, used to feed only the basolateral side of the cells, contained 49% DMEM, 49% Ham's F12 and 2% Ultraser G (BioSepra, Cedex, France). Dimethyl Sulphoxide (DMSO), camptothecin (Camp), etoposide (Etop), aphidicolin (Aphi), hydroxyurea (HU) and genistein (Geni) were purchased from Sigma (St. Louis, Mo.). Tripeptidyl aldehyde proteasome inhibitors N-Acetyl-L-Leucyl-L-Leucyl-Norleucine (LLnL) and benzyloxycarbonyl-L-leucyl-L-leucyl-L-leucinal (Z-LLL) were purchased from Calbiochem-Novabiochem Corporation (La Jolla, Calif.). Ubiquitin ligase (E3) inhibitors were obtained from Bachem Bioscience Inc. (King of Prussia, Pa.). Anti-AAV capsid monoclonal antibody (Anti-VP1, 2 and 3) was purchased from American Research Products (Belmont, Mass.) and anti-ubiquitin antibody was purchased from Santa Cruz Biotechnology Inc. (Santa Cruz, Calif.).
Transduction of polarized airway epithelial cells and primary human fibroblasts. rAAV infection of fully differentiated bronchial cells was performed as described in Duan et al. (1998). For infections from the apical surface of the airway cells, 5 μl rAAV was mixed with 50 μl of culture media and applied directly onto the apical compartment of Millicell inserts (MOI=10,000 particles/cell). During apical infection, the basolateral side of the Millicell was continuously bathed in culture media. Gene transfer to the basal side was performed by inverting Millicell inserts and applying viral vector to the bottom of the supporting filter membrane in a 50 μl volume for 2 hours. Subsequently, Millicell inserts were returned to the upright position, in the continued presence of the original viral inoculum plus an additional 450 μl of media. For both apical and basolateral infections, rAAV containing media was removed after 24 hours and replaced with either fresh culture media (for the basal side) or exposed to air (for the apical side). To test the effect of different agents on the efficiency of AAV transduction in polarized airway cells, 1 μl of each solution was mixed with AAV prior to infection of airway epithelia. Agents were usually presented during the 24 hours AAV infection period unless indicated otherwise. Most of the agents were dissolved in DMSO except for hydroxyurea (dissolved in phosphate buffered saline), H-Leu-Ala-OH (dissolved in 0.9% glacial acetic acid) and H-His-Ala-OH (dissolved in 50% methanol). The working concentrations of the agents were as follows: 0.1 μM camptothecin, 10 μM etoposide, 5 μg/ml aphidicolin, 40 mM hydroxyurea, 50 μM genistein, 40 μM LLnL and 4 μM Z-LLL. When the ubiquitin ligase (E3) inhibitors (H-Leu-Ala-OH and H-His-Ala-OH) were used, airway cells were pretreated with a combination of both inhibitors at a final concentration of 2 mM for 60 minutes prior to infection, followed by the continued presence of inhibitor (0.2 mM) during the entire 24 hours infection period from the basolateral surface. Studies involving EGTA treatment were performed by transiently treating the apical membrane of polarized airway epithelia with 3 mM EGTA in water for 10 minutes (Duan et al., 1998). Following hypotonic EGTA treatment, cultures were washed twice with culture medium and infected with rAAV in the presence or absence of 40 μM LLnL. Human primary fibroblast cells (P4) were maintained in 10% fetal bovine serum (FBS), 1% penicillin and streptomycin, and 89% DMEM. […]

In series [4] the test system is HeLa cells. Briefly: AV2eGFP versus scAV2eGFP expression in Hela cells with hydroxyurea. The class given is cell-based. The settings on record: 5 mM pretreatment; 24 hours post-infection. The procedure:
A set of viral vectors was prepared of half-genome length was prepared. Four GFP-based viruses were generated for this analysis (AV2eGFP, scAV2eGFP, AV2/5eGFP, and scAV2/5eGFP that had either 4.7 kb or 2.4 kb length genomes packaged into AAV2 or AAV5 capsids. The data AAV2 capsid viruses were identical to data for rAAV5 viruses. Functional confirmation of scAAV/dsAAV structure was performed by analysis of gene conversion and gene expression rates in Hela cells, sensitivity of transduction in Hela cells to the DNA synthesis inhibitor hydroxyurea (HU), and by denaturing NaHO gel electrophoresis. Polarized airway epithelia were infected with the various vector constructs from the apical membrane in the presence and absence of applied LLnL at the time of infection. Gene expression was monitored by quantitative morphometry of GFP fluorescence at various post-infection time points.

For another series, the system named is ferret fibroblast. In words: rAAV transduction of ferret fibroblasts with LLnL / doxorubicin. It counts as cell-based. The settings on record: ferret fibroblast. The protocol:
(§1) C. To determine whether combinations of agents that enhance rAAV transduction efficiency have synergistic or additive effects when used in combination, cells were contacted with the proteosome modulator, doxorubicin, and the proteosome inhibitor Z-LLL or LLnL. Different AAV vectors were tested, including splicing vectors and pseudotyped rAAV. Viral stocks utilized were as follows: Av2RSVluc, 5×10^8 particle/μl; Av2RSVlucCap5 (also referred to as Av2/5 CMVLuc), 2×10^9 particle/μl; Av2CMVluc, 1.3×10^9 particle/μl; and Av2CMVlucCap5, 1.1×10^9 particle/μl. Combinations of agents were compared to the agents used alone to determine the efficiency of transduction. LLnL was used at 40, 200 or 400 μM, Z-LLL at 4 μM and doxorubicin at 0.5 or 1 μM when employed alone. When a combination of LLnL and doxorubicin was used, LLnL was used at 4, 10, 20, 40, 200 or 400 μM and doxorubicin at 1 or 5 μM. The apical surface of polarized airway epithelia, HeLa cells or ferret fibroblast was contacted with the agents and rAAV (5×10^9 particles per well).

Another series deals with A549 cells. In words: AV2Luc / AV2/5Luc transduction of A549 cells with LLnL / doxorubicin. The class given is cell-based, human.
Series [5] concerns HeLa cells. Briefly: Luciferase rAAV transduction of HeLa cells with LLnL / doxorubicin. It counts as cell-based. The procedure:
as §1

Another series concerns IB3 cells. Briefly: AV2Luc / AV2/5Luc transduction and nuclear uptake in IB3 cells. The class given is cell-based, human. The settings on record: rAAV2-infected IB3 cells; 40 μM LLnL or 1 μM Dox; 24 hours. The procedure:
LLnL and Z-LLL are two tripeptidyl aldehydes shown to inhibit calpains, cathepsins, cysteine proteases as well as the chymotrypsin-like protease activity of proteasomes (Wagner et al., 2002; Donkor, 2000; Sasaki et al., 1990). […] Both classes of proteasome inhibitors bind tightly to the proteasome complex. Dose response curves for these two proteasome-modulating agents were evaluated on IB3, A549, Hela, and primary fibroblasts. The responses were consistent for a number of cell lines and for three different promoters driving luciferase expression. For one set, CMV-driven luciferase constructs with an AAV2-based genome were employed that were packaged into AV2 or AV5 capsids. Cells were infected at various doses of AV2Luc and AV2/5Luc (MOIs 100 to 1000 particles/cell). At the time of infection, cells were treated with various concentrations of LLnL or Doxorubicin and gene expression was assayed at 24 hours post-infection. The effect of proteasome inhibitors on nuclear uptake of virus was evaluated using a previously-described protocol for fractionating viral DNA in the cytoplasm and nucleus (Xiao et al., 2002). Viral DNA content in the cytoplasmic and nuclear fractions was then evaluated by slot blot hybridization against a Luciferase DNA probe.

Series [6] has as its system polarized human airway epithelia. Briefly: Luciferase rAAV2 / rAAV5-capsid transduction of polarized human airway epithelia. It counts as cell-based.
Series [7] relates to primary fetal fibroblasts. In words: rAAV transduction of primary fetal fibroblasts with LLnL, Dox or both. It counts as cell-based. The settings on record: LLnL by itself. The protocol:
Hela, A549, IB3, and primary fetal fibroblasts were evaluated for AV2Luc and AV2/5Luc transduction in the presence of LLnL, Dox, or LLnL+Dox at various concentrations. The data shown is from Hela and A549 cells at the most optimal dose combination that induces rAV2Luc transduction to a greater extent than each compound alone.

Peptide text beside a SMILES is read from it. * marks the point of attachment. Cbz = O=C(OCc1ccccc1)*

Consider `CC(C)C[C@@H](C=O)NC(=O)[C@H](CC(C)C)NC(=O)[C@H](CC(C)C)NC(=O)OCc1ccccc1` [Z-LLL, N-carbobenzoxyl-L-leucinyl-L-leucinyl-L-leucinal] (Cbz-Leu-Leu-Leu-aldehyde), for which the “toxicity (histologic evaluation of lung and liver, death of animals)” value in series [1] is “No toxicity”. For the same molecule, the “induction of transgene expression from AV2/5 vectors” value in the series on mouse lung came to 10 fold. For the same molecule, the “transgene expression (X-gal staining of lung)” value in series [2] was “no detectable transgene expression”. Besides, in series [3], the “augmentation in transgene expression” value is given as “A similar result was achieved”.
Consider `NC(=O)NO` [hydroxyurea], for which the “effect on gene expression from AV2eGFP and scAV2eGFP” value in the series on HeLa cells [4] is listed as “significantly decreased gene expression from AV2eGFP but not scAV2eGFP virus”. Also, in series [3] (apical infection, data not shown), the “rAAV transduction from the apical surface” value is “none of these agents facilitated rAAV transduction from the apical surface”.
For “N-acetyl-L-leucinyl-L-leucinal-L-norleucinal [LLnL]”, the “concentration at which transduction is enhanced” value was 40 µM in the series on ferret fibroblast, 200 to 400 µM with A549 cells, 40 µM in the series on HeLa cells [5] and 40 µM in series [6] (polarized airway epithelial cells). Moreover, the “toxicity (histologic evaluation of lung and liver, death of animals)” value in series [1] is reported as “No toxicity”. Further, in [3] (LLnL and rAAV to the mucosal surface), the “time of peak of augmentation in AAV transduction, mucosal co-administration” value was 22 days. Besides, the “augmentation in transgene expression” value in [3] is recorded as “greater than 200 fold”. The “toxicity to cells on continual administration” value in series [3] (continual administration, transgene expression ablated by 10 days) is recorded as “toxic to cells”. Also, the “time of transient peak in gene expression, serosal infection” value in [3] (rAAV from the serosal surface in the presence of LLnL) is 72 h. The “fraction of viral DNA in the nuclear compartment” value with IB3 cells is “significantly increased the fraction of viral DNA in the nuclear compartment”. Further, the “enhancement of transduction from the apical surface” value in series [6] (LLnL 40 μM and/or Dox 5 μM at the time of infection) came out at 10 fold. For the same molecule, the “polarity of enhancement of AV2Luc and AV2/5Luc transduction” value in series [6] (LLnL 40 μM, 5 and 14 days) was “only apical transduction for both AAV serotypes was enhanced”. Moreover, the “effect on AV2.RSVluc transduction” value in series [6] (apical and basolateral infection) is “augments AV2.RSVluc transduction from the apical and basolateral surfaces”. Also, the “increase of AV2.RSVlucCap5 transduction” value in [6] (virus applied to the apical surface) was 12 fold. In series [7], the induction of transduction worked out at 10 fold.

(Values after US7749491B2, “Compounds and methods to enhance rAAV transduction” (priority 2003, dated 2010).)
